From patent publication US20160158200A1, “Combinations of Hepatitis C Virus Inhibitors” (priority 2013, published 2016)

What follows are compounds tested on HCV genotype-1a variant with glutamine 30 changed to glutamate in the NS5A protein. Conditions: test compound titrated with BMS-790052 fixed at 200 nM; genotype 1a Q30E replicon.
Format: cell-based
Excerpt: The NS5A synergistic inhibitory effect of test compounds can be determined using various amounts of an NS5A-targeting compound with titration of a second compound of interest. […] In one embodiment, the HCV genotype strain can be genotype 1a containing a change at amino acid 30 of the NS5A protein consisting of glutamine to glutamate. The test compound can be chosen from compounds listed above or from others present in the literature.

| SMILES | Fold-Synergistic 1a (Q30E) [fold] |
| --- | --- |
| CC(O)C1(C(=O)N[C@H](c2ncc(-c3ccc(-c4ccc(-c5cnc([C@@H](NC(=O)C6(C(C)O)CC6)C(C)(C)C)[nH]5)cc4)cc3)[nH]2)C(C)(C)C)CC1 (single isomer, unassigned) [Compound B75] | >100 |
| CC(O)C(C)(C)C(=O)N[C@H](c1ncc(-c2ccc(-c3ccc(-c4cnc([C@@H](NC(=O)C(C)(C)C(C)O)C(C)(C)C)[nH]4)cc3)cc2)[nH]1)C(C)(C)C (single isomer, unassigned) [Compound B76] | >100 |
| CC(O)C(C)(C)C(=O)N[C@H](c1ncc(-c2ccc(-c3ccc(-c4cnc([C@@H](NC(=O)C(C)(C)C(C)O)C(C)(C)C)[nH]4)cc3)cc2)[nH]1)C(C)(C)C (single isomer, unassigned) [Compound B78] | >100 |
| CC1(C)CC1C(=O)N[C@H](c1ncc(-c2ccc(-c3ccc(-c4cnc([C@@H](NC(=O)C5CC5(C)C)C(C)(C)C)[nH]4)cc3)cc2)[nH]1)C(C)(C)C (single isomer, unassigned) [Compound B79] | >100 |
| CC1(C)CC1C(=O)N[C@H](c1ncc(-c2ccc(-c3ccc(-c4cnc([C@@H](NC(=O)C5CC5(C)C)C(C)(C)C)[nH]4)cc3)cc2)[nH]1)C(C)(C)C (single isomer, unassigned) [Compound B80] | >100 |
| CC1(C)CC1C(=O)N[C@H](c1ncc(-c2ccc(-c3ccc(-c4cnc([C@@H](NC(=O)C5CC5(C)C)C(C)(C)C)[nH]4)cc3)cc2)[nH]1)C(C)(C)C (single isomer, unassigned) [Compound B81] | >100 |
| CC(C)(C(=O)N[C@H](c1nc(-c2ccc(-c3ccc(-c4cnc([C@@H](NC(=O)C(C)(C)C5CCCO5)C(C)(C)C)[nH]4)cc3)cc2)c[nH]1)C(C)(C)C)C1CCCO1 (single isomer, unassigned) [Compound B170] | >100 |
| CC(C)(C)[C@H](NC(=O)C1C2CCOC21)c1nc(-c2ccc(-c3ccc(-c4cnc([C@@H](NC(=O)C5C6CCOC65)C(C)(C)C)[nH]4)cc3)cc2)c[nH]1 (single isomer, unassigned) [Compound B-163] | >100 |
| CC(C)(C)[C@H](NC(=O)C1C2CCOC21)c1nc(-c2ccc(-c3ccc(-c4cnc([C@@H](NC(=O)C5C6CCOC65)C(C)(C)C)[nH]4)cc3)cc2)c[nH]1 (single isomer, unassigned) [Compound B-164] | >100 |
| CC(C)(C)[C@H](NC(=O)C1C2CCOC21)c1nc(-c2ccc(-c3ccc(-c4cnc([C@@H](NC(=O)C5C6CCOC65)C(C)(C)C)[nH]4)cc3)cc2)c[nH]1 (single isomer, unassigned) [Compound B-165] | >100 |
| CC(C)(C(=O)N[C@H](c1nc(-c2ccc(-c3ccc(-c4cnc([C@@H](NC(=O)C(C)(C)C5CCCO5)C(C)(C)C)[nH]4)cc3)cc2)c[nH]1)C(C)(C)C)C1CCCO1 (single isomer, unassigned) [Compound B-169] | >100 |
| CC(C)(C(=O)N[C@H](c1nc(-c2ccc(-c3ccc(-c4cnc([C@@H](NC(=O)C(C)(C)C5CCCO5)C(C)(C)C)[nH]4)cc3)cc2)c[nH]1)C(C)(C)C)C1CCCO1 (single isomer, unassigned) [Compound B-171] | >100 |
| CC(C)[C@H](NC(=O)C1(C(C)O)CC1)c1ncc(-c2ccc(-c3ccc(-c4cnc([C@@H](NC(=O)C5(C(C)O)CC5)C(C)C)n4C)cc3)cc2)n1C (single isomer, unassigned) [Compound B-202] | >10 |
| CC(C)[C@H](NC(=O)C1(C(C)O)CC1)c1ncc(-c2ccc(-c3ccc(-c4cnc([C@@H](NC(=O)C5(C(C)O)CC5)C(C)C)n4C)cc3)cc2)n1C (single isomer, unassigned) [Compound B-204] | >10 |
| CC(C)(C)OC(=O)N1CCCCC1(C)C(=O)N[C@H](c1nc(-c2ccc(-c3ccc(-c4c[nH]c([C@@H](NC(=O)C5(C)CCCCN5C(=O)OC(C)(C)C)C(C)(C)C)n4)cc3)cc2)c[nH]1)C(C)(C)C (single isomer, unassigned) [Compound L-46a] | >100 |
| CC(C)(C)OC(=O)N1CCCCC1(C)C(=O)N[C@H](c1nc(-c2ccc(-c3ccc(-c4c[nH]c([C@@H](NC(=O)C5(C)CCCCN5C(=O)OC(C)(C)C)C(C)(C)C)n4)cc3)cc2)c[nH]1)C(C)(C)C (single isomer, unassigned) [Compound L-46b] | >100 |
| CC(C)(C)OC(=O)N1CCCCC1(C)C(=O)N[C@H](c1nc(-c2ccc(-c3ccc(-c4c[nH]c([C@@H](NC(=O)C5(C)CCCCN5C(=O)OC(C)(C)C)C(C)(C)C)n4)cc3)cc2)c[nH]1)C(C)(C)C (single isomer, unassigned) [Compound L-46c] | >100 |

| SMILES | Fold-Synergistic 1a (Q30E) [fold] |
| --- | --- |
| CC(C)(C)C(NC(=O)C1(C)CC1(F)F)c1nc(-c2ccc(-c3ccc(-c4c[nH]c(C(NC(=O)C5(C)CC5(F)F)C(C)(C)C)n4)cc3)cc2)c[nH]1 (single isomer, unassigned) [Compound L-58a] | >100 |
| CC(C)(C)C(NC(=O)C1(C)CC1(F)F)c1nc(-c2ccc(-c3ccc(-c4c[nH]c(C(NC(=O)C5(C)CC5(F)F)C(C)(C)C)n4)cc3)cc2)c[nH]1 (single isomer, unassigned) [Compound L-58b] | >100 |
| CC(C)(C)C(NC(=O)C(C)(O)C(F)(F)F)c1nc(-c2ccc(-c3ccc(-c4c[nH]c(C(NC(=O)C(C)(O)C(F)(F)F)C(C)(C)C)n4)cc3)cc2)c[nH]1.O=C(O)C(F)(F)F.O=C(O)C(F)(F)F (single isomer, unassigned) [Compound L-66a] | >100 |
| CC(C)(C)C(NC(=O)C(C)(O)C(F)(F)F)c1nc(-c2ccc(-c3ccc(-c4c[nH]c(C(NC(=O)C(C)(O)C(F)(F)F)C(C)(C)C)n4)cc3)cc2)c[nH]1.O=C(O)C(F)(F)F.O=C(O)C(F)(F)F (single isomer, unassigned) [Compound L-66b] | >100 |
| CC(C)(C)[C@H](NC(=O)C(C)(O)C1(C)CC1)c1nc(-c2ccc(-c3ccc(-c4c[nH]c([C@@H](NC(=O)C(C)(O)C5(C)CC5)C(C)(C)C)n4)cc3)cc2)c[nH]1 (single isomer, unassigned) [Compound L-93a] | >100 |
| CC(C)(C)[C@H](NC(=O)C(C)(O)C1(C)CC1)c1nc(-c2ccc(-c3ccc(-c4c[nH]c([C@@H](NC(=O)C(C)(O)C5(C)CC5)C(C)(C)C)n4)cc3)cc2)c[nH]1 (single isomer, unassigned) [Compound L-93c] | >100 |
| CC(C)(C)[C@H](NC(=O)C1CCCCC1CO)c1nc(-c2ccc(-c3ccc(-c4c[nH]c([C@@H](NC(=O)C5CCCCC5CO)C(C)(C)C)n4)cc3)cc2)c[nH]1 (single isomer, unassigned) [Compound L-141a] | >100 |
| CC(C)(C)[C@H](NC(=O)C1CCCCC1CO)c1nc(-c2ccc(-c3ccc(-c4c[nH]c([C@@H](NC(=O)C5CCCCC5CO)C(C)(C)C)n4)cc3)cc2)c[nH]1 (single isomer, unassigned) [Compound L-141b] | >100 |
| CC(C)(C)[C@H](NC(=O)C1CCCCC1CO)c1nc(-c2ccc(-c3ccc(-c4c[nH]c([C@@H](NC(=O)C5CCCCC5CO)C(C)(C)C)n4)cc3)cc2)c[nH]1 (single isomer, unassigned) [Compound L-141c] | >100 |
| CC(C)(F)C(NC(=O)C1CCC(F)(F)CC1)c1nc(-c2ccc(-c3ccc(-c4c[nH]c(C(NC(=O)C5CCC(F)(F)CC5)C(C)(C)F)n4)cc3)cc2)c[nH]1 (single isomer, unassigned) [Compound N-106A] | >100 |
| CC(C)(F)C(NC(=O)C1CCC(F)(F)CC1)c1nc(-c2ccc(-c3ccc(-c4c[nH]c(C(NC(=O)C5CCC(F)(F)CC5)C(C)(C)F)n4)cc3)cc2)c[nH]1 (single isomer, unassigned) [Compound N-106B] | >100 |
| CC(C)(F)C(NC(=O)C1CCC(F)(F)CC1)c1nc(-c2ccc(-c3ccc(-c4c[nH]c(C(NC(=O)C5CCC(F)(F)CC5)C(C)(C)F)n4)cc3)cc2)c[nH]1 (single isomer, unassigned) [Compound N-106C] | >100 |
| CC(C)(C)C(=O)NC(c1nc(-c2ccc(-c3ccc(-c4c[nH]c(C(NC(=O)C(C)(C)C)C5(C(F)(F)F)CC5)n4)cc3)cc2)c[nH]1)C1(C(F)(F)F)CC1 (single isomer, unassigned) [Compound N-107A] | >100 |
| CC(C)(C)C(=O)NC(c1nc(-c2ccc(-c3ccc(-c4c[nH]c(C(NC(=O)C(C)(C)C)C5(C(F)(F)F)CC5)n4)cc3)cc2)c[nH]1)C1(C(F)(F)F)CC1 (single isomer, unassigned) [Compound N-107B] | >10 |
| O=C(NC(c1nc(-c2ccc(-c3ccc(-c4c[nH]c(C(NC(=O)C5CCC(F)(F)CC5)C5(C(F)(F)F)CC5)n4)cc3)cc2)c[nH]1)C1(C(F)(F)F)CC1)C1CCC(F)(F)CC1.O=C(O)C(F)(F)F (single isomer, unassigned) [Compound N-109B] | >100 |
| CC(C)(C(=O)N[C@H](c1nc(-c2ccc(-c3ccc(-c4c[nH]c([C@@H](NC(=O)C(C)(C)C(O)c5ccccc5F)C(C)(C)C)n4)cc3)cc2)c[nH]1)C(C)(C)C)C(O)c1ccccc1F (single isomer, unassigned) [Compound N-124A] | >100 |
| CC(C)(C(=O)N[C@H](c1nc(-c2ccc(-c3ccc(-c4c[nH]c([C@@H](NC(=O)C(C)(C)C(O)c5ccccc5F)C(C)(C)C)n4)cc3)cc2)c[nH]1)C(C)(C)C)C(O)c1ccccc1F (single isomer, unassigned) [Compound N-124B] | >100 |
